Test results published in patent US20120142667A1, “PYRIMIDINE DERIVATIVES AS ZAP-70 INHIBITORS” (priority 2009, published 2012).

What was measured:
[1] = biological target: T1, ZAP-70 (Homo sapiens, UniProt P43403); assay: ZAP-70 kinobeads assay; type: binding; settings: cell lysate
T1 construct: endogenous in cells; host or cells: cell lysate
T1 sequence (P43403 1-619): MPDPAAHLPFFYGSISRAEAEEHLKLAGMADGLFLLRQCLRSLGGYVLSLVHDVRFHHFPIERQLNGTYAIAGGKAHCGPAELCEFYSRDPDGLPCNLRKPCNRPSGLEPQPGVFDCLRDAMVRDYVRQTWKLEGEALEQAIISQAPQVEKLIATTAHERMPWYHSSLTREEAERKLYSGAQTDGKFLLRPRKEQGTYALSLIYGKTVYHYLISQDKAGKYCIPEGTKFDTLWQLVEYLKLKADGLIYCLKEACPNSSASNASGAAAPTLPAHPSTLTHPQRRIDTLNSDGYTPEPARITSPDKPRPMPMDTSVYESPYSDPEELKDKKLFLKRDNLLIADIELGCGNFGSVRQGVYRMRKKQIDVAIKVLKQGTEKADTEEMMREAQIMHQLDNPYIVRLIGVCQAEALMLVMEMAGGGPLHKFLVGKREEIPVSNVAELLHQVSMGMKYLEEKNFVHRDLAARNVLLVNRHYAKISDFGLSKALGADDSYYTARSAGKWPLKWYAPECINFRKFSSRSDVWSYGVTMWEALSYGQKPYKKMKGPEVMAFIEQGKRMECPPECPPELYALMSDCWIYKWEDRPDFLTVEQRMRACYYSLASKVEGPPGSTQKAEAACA
How it was run: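 Competition binding: compounds at various concentrations incubated with cell lysate plus affinity matrix bearing immobilized aminopyrido-pyrimidine ligand 24. ZAP-70 retained on beads eluted and quantified by specific-antibody dot blot with infrared detection.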

[2] = tested on: Calcium Ion Release in Cells; assay: calcium release assay (measurement of calcium ion release in cells); type: cell-based; settings: calcium release assay as described in WO-A 2009/080638

Structure (SMILES) | IC50 [1] | IC50 [2]
COc1ccc(Nc2nc(Nc3ccc(C)nc3C)ncc2Cl)c(NS(C)(=O)=O)c1 [Example 75, N-(2-(5-chloro-2-(2,6-dimethylpyridin-3-ylamino)pyrimidin-4-ylamino)-5-methoxyphenyl)methanesulfonamide] | ≤ 100 nM | ≤ 1000 nM
COc1ccc(Nc2nc(Nc3ccncc3OC)ncc2Cl)c(NS(C)(=O)=O)c1 [Example 76, N-(2-(5-chloro-2-(3-methoxypyridin-4-ylamino)pyrimidin-4-ylamino)-5-methoxyphenyl)methanesulfonamide] | 100 to 1000 nM | ≤ 1000 nM
COc1ccc(Nc2nc(Nc3cccnc3C)ncc2Cl)c(NS(C)(=O)=O)c1 [Example 77, N-(2-(5-chloro-2-(2-methylpyridin-3-ylamino)pyrimidin-4-ylamino)-5-methoxyphenyl)methanesulfonamide] | 100 to 1000 nM | ≤ 1000 nM
COc1ccc(Nc2nc(Nc3cccnc3OC)ncc2Cl)c(NS(C)(=O)=O)c1 [Example 79, N-(2-(5-chloro-2-(2-methoxypyridin-3-ylamino)pyrimidin-4-ylamino)-5-methoxyphenyl)methanesulfonamide] | 100 to 1000 nM | ≤ 1000 nM
COc1ccc(Nc2nc(Nc3ccnc(C)c3C)ncc2Cl)c(NS(C)(=O)=O)c1 [Example 80, N-(2-(5-chloro-2-(2,3-dimethylpyridin-4-ylamino)pyrimidin-4-ylamino)-5-methoxyphenyl)methanesulfonamide] | 100 to 1000 nM | ≤ 1000 nM
COc1ccc(Nc2nc(Nc3cnc(OCCO)cc3OC)ncc2Cl)c(NS(C)(=O)=O)c1 [Example 83, N-(2-(5-chloro-2-(6-(2-hydroxyethoxy)-4-methoxypyridin-3-ylamino)pyrimidin-4-ylamino)-5-methoxyphenyl)methanesulfonamide] | ≤ 100 nM | ≤ 1000 nM
COc1ccc(Nc2nc(Nc3cnc(OCCO)cc3C)ncc2Cl)c(NS(C)(=O)=O)c1 [Example 85, N-(2-(5-chloro-2-(6-(2-hydroxyethoxy)-4-methylpyridin-3-ylamino)pyrimidin-4-ylamino)-5-methoxyphenyl)methanesulfonamide] | 100 to 1000 nM | ≤ 1000 nM
COc1ccc(Nc2nc(Nc3cc(OCCCO)ccc3C)ncc2Cl)c(NS(C)(=O)=O)c1 [Example 87, N-(2-(5-chloro-2-(5-(3-hydroxypropoxy)-2-methylphenylamino)pyrimidin-4-ylamino)-5-methoxyphenyl)methanesulfonamide] | 100 to 1000 nM | ≤ 1000 nM
COc1ccc(Nc2nc(Nc3cc(OCCO)ccc3C)ncc2Cl)c(NS(C)(=O)=O)c1 [Example 88, N-(2-(5-chloro-2-(5-(2-hydroxyethoxy)-2-methylphenylamino)pyrimidin-4-ylamino)-5-methoxyphenyl)methanesulfonamide] | ≤ 100 nM | ≤ 1000 nM
COc1ccc(Nc2nc(Nc3ccc(OCC(N)=O)cc3OC)ncc2Cl)c(NS(C)(=O)=O)c1 [Example 89, 2-(4-((5-chloro-4-((4-methoxy-2-(methylsulfonamido)phenyl)amino)pyrimidin-2-yl)amino)-3-methoxyphenoxy)acetamide] | ≤ 100 nM | ≤ 1000 nM
COc1ccc(Nc2nc(Nc3cccc(OCCF)c3C)ncc2Cl)c(NS(C)(=O)=O)c1 [Example 92, N-(2-(5-chloro-2-(3-(2-fluoroethoxy)-2-methylphenylamino)pyrimidin-4-ylamino)-5-methoxyphenyl)methanesulfonamide] | 100 to 1000 nM | ≤ 1000 nM
COc1ccc(Nc2nc(Nc3cccc(OCC(C)O)c3C)ncc2Cl)c(NS(C)(=O)=O)c1 (stereo not shown) [Example 93, N-(2-((5-chloro-2-((3-(2-hydroxypropoxy)-2-methylphenyl)amino)pyrimidin-4-yl)amino)-5-methoxyphenyl)methanesulfonamide] | 100 to 1000 nM | ≤ 1000 nM
COc1ccc(Nc2nc(Nc3cccc(OCCCO)c3C)ncc2Cl)c(NS(C)(=O)=O)c1 [Example 94, N-(2-((5-chloro-2-((3-(3-hydroxypropoxy)-2-methylphenyl)amino)pyrimidin-4-yl)amino)-5-methoxyphenyl)methanesulfonamide] | 100 to 1000 nM | ≤ 1000 nM
COc1ccc(Nc2nc(Nc3cccc(OCC(C)(C)O)c3C)ncc2Cl)c(NS(C)(=O)=O)c1 [Example 95, N-(2-((5-chloro-2-((3-(2-hydroxy-2-methylpropoxy)-2-methylphenyl)amino)pyrimidin-4-yl)amino)-5-methoxyphenyl)methanesulfonamide] | ≤ 100 nM | ≤ 1000 nM
COc1ccc(Nc2nc(Nc3cccc(CCCO)c3C)ncc2Cl)c(NS(C)(=O)=O)c1 [Example 97, N-(2-((5-chloro-2-((3-(3-hydroxypropyl)-2-methylphenyl)amino)pyrimidin-4-yl)amino)-5-methoxyphenyl)methanesulfonamide] | ≤ 100 nM | ≤ 1000 nM
COc1ccc(Nc2nc(Nc3cc(OC)c(CCO)cc3OC)ncc2Cl)c(NS(C)(=O)=O)c1 [Example 105, N-(2-((5-chloro-2-((4-(2-hydroxyethyl)-2,5-dimethoxyphenyl)amino)pyrimidin-4-yl)amino)-5-methoxyphenyl)methanesulfonamide] | 100 to 1000 nM | ≤ 1000 nM
COc1ccc(Nc2nc(Nc3cc(OCCO)ccc3OC)ncc2F)c(NS(C)(=O)=O)c1 [Example 106, N-(2-(5-fluoro-2-(5-(2-hydroxyethoxy)-2-methoxyphenylamino)pyrimidin-4-ylamino)-5-methoxyphenyl)methanesulfonamide] | 100 to 1000 nM | ≤ 1000 nM
COc1ccc(Nc2nc(Nc3cc(OC)c(CC(N)=O)cc3OC)ncc2Cl)c(NS(C)(=O)=O)c1 [Example 107, 2-(4-((5-chloro-4-((4-methoxy-2-(methylsulfonamido)phenyl)amino)pyrimidin-2-yl)amino)-2,5-dimethoxyphenyl)acetamide] | 100 to 1000 nM | ≤ 1000 nM
COc1ccc(Nc2nc(Nc3cc(OCC(N)=O)ccc3OC)ncc2Cl)c(NS(C)(=O)=O)c1 [Example 108, 2-(3-((5-chloro-4-((4-methoxy-2-(methylsulfonamido)phenyl)amino)pyrimidin-2-yl)amino)-4-methoxyphenoxy)acetamide] | ≤ 100 nM | ≤ 1000 nM
COc1ccc(Nc2nc(Nc3cc(OC)c(OCCO)cc3OC)ncc2Cl)c(NS(C)(=O)=O)c1 [Example 110, N-(2-((5-chloro-2-((4-(2-hydroxyethoxy)-2,5-dimethoxyphenyl)amino)pyrimidin-4-yl)amino)-5-methoxyphenyl)methanesulfonamide] | ≤ 100 nM | ≤ 1000 nM
COc1ccc(Nc2nc(Nc3cc(OCCO)ccc3Cl)ncc2Cl)c(NS(C)(=O)=O)c1 [Example 111, N-(2-((5-chloro-2-((2-chloro-5-(2-hydroxyethoxy)phenyl)amino)pyrimidin-4-yl)amino)-5-methoxyphenyl)methanesulfonamide] | 100 to 1000 nM | ≤ 1000 nM
COc1ccc(Nc2nc(Nc3cc(CCCO)ccc3OC)ncc2Cl)c(NS(C)(=O)=O)c1 [Example 112, N-(2-(5-chloro-2-(5-(3-hydroxypropyl)-2-methoxyphenylamino)pyrimidin-4-ylamino)-5-methoxyphenyl)methanesulfonamide] | 100 to 1000 nM | ≤ 1000 nM
COc1ccc(Nc2nc(Nc3cc(CCC(N)=O)ccc3OC)ncc2Cl)c(NS(C)(=O)=O)c1 [Example 113, 3-(3-(5-chloro-4-(4-methoxy-2-(methylsulfonamido)phenylamino)pyrimidin-2-ylamino)-4-methoxyphenyl)propanamide] | 100 to 1000 nM | ≤ 1000 nM
